Assay [1] has as its target T1, human recombinant GCS expressed in insect cells (Homo sapiens, UniProt Q16739).
T1 construct: made in house; host or cells: insect cells
T1 sequence (Q16739 1-394): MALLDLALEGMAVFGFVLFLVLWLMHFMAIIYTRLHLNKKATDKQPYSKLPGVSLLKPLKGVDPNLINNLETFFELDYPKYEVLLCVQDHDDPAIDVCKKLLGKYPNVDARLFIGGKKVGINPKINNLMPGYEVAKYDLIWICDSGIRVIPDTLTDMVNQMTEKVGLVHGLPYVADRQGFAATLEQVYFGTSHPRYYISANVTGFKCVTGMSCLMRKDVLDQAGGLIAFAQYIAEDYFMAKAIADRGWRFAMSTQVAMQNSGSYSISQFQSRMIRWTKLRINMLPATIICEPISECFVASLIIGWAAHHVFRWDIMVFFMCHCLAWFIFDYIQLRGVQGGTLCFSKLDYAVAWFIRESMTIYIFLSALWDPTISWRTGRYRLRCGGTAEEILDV
Description: Inhibition of GCS. Type of assay: biochemical. The method, then: The assay for inhibition of GCS was performed essentially as described in Platt et al., J. Biol. Chem., (1994), 269, 27108, the enzyme source being human recombinant GCS expressed in insect cells.

Assay [2] addresses T2, non-lysosomal-β-glucocerebrosidase (Homo sapiens, UniProt Q9HCG7).
T2 construct: whole cell extracts of MCF7 (a human breast carcinoma cell line) was used as the source of the enzyme; endogenous in cells; host or cells: MCF7 whole cell extract
T2 sequence (Q9HCG7 1-927): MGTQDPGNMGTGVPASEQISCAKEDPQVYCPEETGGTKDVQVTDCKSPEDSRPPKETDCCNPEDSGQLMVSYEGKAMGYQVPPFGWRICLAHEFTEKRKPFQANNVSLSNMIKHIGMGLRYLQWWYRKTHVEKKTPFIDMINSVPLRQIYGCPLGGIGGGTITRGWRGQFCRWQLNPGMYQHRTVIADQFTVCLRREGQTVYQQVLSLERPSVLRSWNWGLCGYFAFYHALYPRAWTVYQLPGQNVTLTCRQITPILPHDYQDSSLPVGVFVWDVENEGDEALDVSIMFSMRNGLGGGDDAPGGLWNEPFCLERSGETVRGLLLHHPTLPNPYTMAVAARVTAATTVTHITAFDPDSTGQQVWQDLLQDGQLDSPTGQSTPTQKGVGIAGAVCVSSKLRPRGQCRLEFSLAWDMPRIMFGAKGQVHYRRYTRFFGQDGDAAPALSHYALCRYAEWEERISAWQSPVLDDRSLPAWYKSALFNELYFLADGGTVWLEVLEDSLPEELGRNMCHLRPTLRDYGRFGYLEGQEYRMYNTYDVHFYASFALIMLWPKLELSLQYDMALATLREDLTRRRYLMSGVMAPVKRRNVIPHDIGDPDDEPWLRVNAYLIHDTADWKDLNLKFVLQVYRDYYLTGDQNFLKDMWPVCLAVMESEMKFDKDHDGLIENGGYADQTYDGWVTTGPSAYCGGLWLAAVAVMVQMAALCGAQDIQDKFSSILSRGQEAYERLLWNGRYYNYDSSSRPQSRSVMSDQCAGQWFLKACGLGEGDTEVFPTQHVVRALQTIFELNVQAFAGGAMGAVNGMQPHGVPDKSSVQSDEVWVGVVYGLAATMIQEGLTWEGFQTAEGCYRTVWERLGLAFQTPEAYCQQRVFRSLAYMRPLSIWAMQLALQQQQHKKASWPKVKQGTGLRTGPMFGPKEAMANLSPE
As to the kind of experiment: Inhibition of non-lysosomal-β-glucocerebrosidase. The following applies: whole cell extracts of MCF7 as enzyme source; 5 mM 4-MU β-glucoside; pH 5.8. The assay is classed as biochemical.

By IC50 is commonly meant the concentration at which inhibition is half-maximal. Regarding `OC[C@@H]1[C@H](O)[C@H](O)[C@@H](O)CN1Cc1ccc(OCc2ccccc2)cc1` [Example 1], the concentration for half-maximal inhibition (IC50) came out at 1.3 µM in assay [1] and 10 µM in assay [2].
